Strand notation (5' to 3'): a small letter for the sugar, then the base; units joined by * are phosphorothioate-linked, units joined directly phosphodiester-linked; [ ] holds rarer units or linkages, { } end groups; capitals alone tell only the bases. e = 2'-O-(2-methoxyethyl) (MOE); k = constrained ethyl (cEt); [5mC] = 5-methylcytosine; d = 2'-deoxy (DNA)
Legend:
Type in all cases: cell-based
[1] = test system: human PKK mRNA; experiment: Antisense inhibition of human PKK mRNA in HepaRG cells, 1,000 nM, MOE/deoxy/cEt oligonucleotides (Example 3)
Summary of the method: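 Readout is percent PKK mRNA reduction against untreated controls, by real-time PCR (RTS3454) adjusted for total RNA via RIBOGREEN. Oligonucleotides, phosphorothioate gapmers of 16 nucleosides with cEt, MOE and deoxy sugars, were delivered at 1,000 nM by electroporation to 20,000 HepaRG cells/well for roughly 24 h.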

[2] = test system: human PKK mRNA; experiment: Dose-dependent antisense inhibition of human PKK in HepaRG cells, 0.11-3.00 uM (Example 6); conditions: for percent inhibition of PKK mRNA, 0.11 μM / percent inhibition of PKK mRNA, 0.33 μM / percent inhibition of PKK mRNA, 1.00 μM / percent inhibition of PKK mRNA, 3.00 μM: electroporation, approx. 16 hours, relative to untreated control cells; for IC50: 0.11-3.00 μM
Protocol: Cells were plated at a density of 20,000 cells per well and transfected using electroporation with 0.11 μM, 0.33 μM, 1.00 μM, and 3.00 μM concentrations of antisense oligonucleotide. After a treatment period of approximately 16 hours, RNA was isolated from the cells and PKK mRNA levels were measured by quantitative real-time PCR. Human PKK primer probe set RTS3454 was used to measure mRNA levels. PKK mRNA levels were adjusted according to total RNA content, as measured by RIBOGREEN®. The antisense oligonucleotides were tested in a series of experiments that had similar culture conditions.
The half maximal inhibitory concentration (IC50) of each oligonucleotide is also presented.

[3] = test system: human PKK mRNA; experiment: Antisense inhibition of human PKK mRNA in HepaRG cells, 5,000 nM (Example 2)
Summary of the method: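 qRT-PCR (RTS3454) read-out, RIBOGREEN-normalized; % inhibition vs untreated cells. HepaRG, 20,000 cells/well, electroporation, 5,000 nM ASO, ~24 h.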

[4] = test system: human PKK mRNA; experiment: Dose-dependent antisense inhibition of human PKK in HepaRG cells, 0.19-5.00 uM (Example 5); conditions: HepaRG cells; for percent inhibition of PKK at 0.19 μM / percent inhibition of PKK at 0.56 μM / percent inhibition of PKK at 1.67 μM / percent inhibition of PKK at 5.00 μM: electroporation, approximately 16 hours
Summary of the method: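 PKK mRNA knockdown was measured by real-time PCR (primer probe set RTS3454) about 16 h after electroporating 20,000 HepaRG cells per well with oligonucleotide at four doses from 0.19 to 5.00 μM. Levels were adjusted to RIBOGREEN-measured total RNA, and IC50 values were calculated.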

[5] = Table 27, HepaRG cells, 1,000 nM antisense oligonucleotide, human PKK mRNA
[6] = HepaRG cells, electroporation with 1,000 nM antisense oligonucleotide, approx. 24 hours, PKK mRNA by RT-PCR (RTS3454), relative to untreated control cells, Table 25 experiment
[7] = HepaRG cells, electroporation with 1,000 nM antisense oligonucleotide, approximately 24 hours, primer probe set RTS3454, relative to untreated control cells, experiment of Table 24
[8] = HepaRG cells, 1,000 nM antisense oligonucleotide, Table 29
[9] = Table 30, human PKK mRNA, HepaRG cells, 1,000 nM antisense oligonucleotide
[10] = HepaRG cells, electroporation with 1,000 nM antisense oligonucleotide, approximately 24 hours, primer probe set RTS3454, relative to untreated control cells, experiment of Table 23
[11] = Table 20, HepaRG cells, electroporation with 1,000 nM antisense oligonucleotide, approximately 24 hours, PKK mRNA by RT-PCR (RTS3454), relative to untreated control cells
[12] = Table 22 experiment, HepaRG cells, electroporation with 1,000 nM antisense oligonucleotide, approx. 24 hours, PKK mRNA by RT-PCR (RTS3454), relative to untreated control cells

| Substance | percent inhibition of PKK mRNA, 0.11 μM [2] | percent inhibition of PKK mRNA, 0.33 μM [2] | percent inhibition of PKK mRNA, 1.00 μM [2] | percent inhibition of PKK mRNA, 3.00 μM [2] | IC50 [2] | further results |
| --- | --- | --- | --- | --- | --- | --- |
| 548343 (antisense eT*eA*kG*dT*dG*dA*dT*dA*dA*dG*dA*dG*d[5mC]*kT*kG*eG) [compound 548343] | 61% | 67% | 88% | 92% | – | % inhibition [1, 5]: 78% |
| 548217 (e[5mC]*eT*kG*dT*dG*d[5mC]*dA*dT*dA*dG*dA*d[5mC]*d[5mC]*k[5mC]*k[5mC]*eA; antisense) [compound 548217] | 22% | 24% | 54% | 71% | 900 nM | % inhibition [1, 6]: 69% |
| 548046 (eT*eA*kT*d[5mC]*dA*dT*dG*dA*dT*dT*d[5mC]*d[5mC]*d[5mC]*kT*kT*e[5mC]; antisense) [compound 548046] | 7% | 35% | 64% | 77% | 700 nM | % inhibition [1, 7]: 84% |
| 548558 (antisense eA*eA*k[5mC]*dA*dT*dT*dG*dT*dG*dT*dA*dG*d[5mC]*kT*kG*e[5mC]) [compound 548558] | 53% | 61% | 78% | 95% | – | % inhibition [1, 8]: 75% |
| 548410 (antisense eA*eG*kT*dA*dT*d[5mC]*dA*d[5mC]*dT*dG*dT*dA*d[5mC]*kT*kA*eG) [compound 548410] | 31% | 58% | 85% | 82% | 200 nM | % inhibition [1, 9]: 85% |
| 547946 (eG*eA*kA*d[5mC]*dT*dT*dG*dG*dT*dG*dT*dG*d[5mC]*k[5mC]*kA*e[5mC]; antisense) [compound 547946] | 0% | 47% | 74% | – | 500 nM | % inhibition [1, 10]: 81% |
| 548409 (antisense eG*eT*kA*dT*d[5mC]*dA*d[5mC]*dT*dG*dT*dA*d[5mC]*dT*kA*kG*eT) [compound 548409] | 21% | 60% | 90% | 93% | 300 nM | % inhibition [1, 9]: 81% |
| 548667 (antisense eT*eG*kG*d[5mC]*dA*dA*dG*d[5mC]*dT*dA*d[5mC]*d[5mC]*dT*kT*k[5mC]*eT) [compound 548667] | 0% | 37% | 73% | 86% | 700 nM | % inhibition ([1]; PKK mRNA, HepaRG cells, 1,000 nM antisense oligonucleotide, Table 31): 51% |
| 547859 (antisense e[5mC]*e[5mC]*kT*d[5mC]*dT*d[5mC]*dA*dT*dA*dT*d[5mC]*dA*dA*k[5mC]*kT*e[5mC]) [compound 547859] | 29% | 56% | 83% | 78% | 300 nM | % inhibition [1, 11]: 77%; % inhibition [1, 12]: 88% |
| 547861 (antisense eA*e[5mC]*kT*d[5mC]*d[5mC]*dT*d[5mC]*dT*d[5mC]*dA*dT*dA*dT*k[5mC]*kA*eA) [compound 547861] | 7% | 40% | 75% | 84% | 500 nM | % inhibition [1, 11]: 0%; % inhibition [1, 12]: 57% |
| 548547 (antisense eG*eT*kG*d[5mC]*dG*dA*dT*dT*dA*dA*dG*d[5mC]*d[5mC]*k[5mC]*k[5mC]*eA) [compound 548547] | 30% | 41% | 76% | 90% | 400 nM | % inhibition [1, 8]: 86% |
| 547947 (eG*eG*kA*dA*d[5mC]*dT*dT*dG*dG*dT*dG*dT*dG*k[5mC]*k[5mC]*eA; antisense) [compound 547947] | 24% | 58% | 81% | 93% | 300 nM | % inhibition [1, 10]: 80% |
| 548338 (antisense eA*eT*kG*dA*dA*dA*d[5mC]*dT*dG*dT*dG*dG*d[5mC]*kT*k[5mC]*eG) [compound 548338] | 41% | 58% | 79% | 95% | 200 nM | % inhibition [1, 5]: 80% |
| 548069 (e[5mC]*e[5mC]*kA*dA*d[5mC]*dA*dG*dT*dT*dG*dG*dT*dA*kT*kA*eA; antisense) [compound 548069] | 6% | 0% | 27% | 66% | 1900 nM | % inhibition [1, 7]: 57% |
| 548180 (eT*e[5mC]*kA*dT*dG*dG*dA*dG*dA*dT*d[5mC]*dT*d[5mC]*kA*kG*eT; antisense) [compound 548180] | 11% | 59% | 71% | 88% | 400 nM | % inhibition [1, 6]: 79% |
| 548005 (eA*eG*kA*dG*dT*dA*dA*d[5mC]*d[5mC]*dA*dG*dA*dG*k[5mC]*kT*e[5mC]; antisense) [compound 548005] | 53% | 49% | 71% | 95% | 400 nM | % inhibition [1, 7]: 77% |
| 548743 (DNA e[5mC]*eA*e[5mC]*eT*dG*dT*dA*d[5mC]*dT*dA*dG*dT*dT*eT*e[5mC]*e[5mC]*eT; antisense) [compound 548743] | – | – | – | – | – | % inhibition ([3]; human PKK mRNA, HepaRG cells, 5,000 nM antisense oligonucleotide, Table 18): 80%; percent inhibition of PKK at 0.19 μM ([4]; Table 40): 25%; percent inhibition of PKK at 0.56 μM ([4]; Table 40): 57%; percent inhibition of PKK at 1.67 μM ([4]; Table 40): 73%; percent inhibition of PKK at 5.00 μM ([4]; Table 40): 88%; IC50 ([4]; 4 point dose response, Table 40): 500 nM; percent inhibition of PKK mRNA, 0.19 μM ([4]; 0.19 μM antisense oligonucleotide): 22%; percent inhibition of PKK mRNA, 0.56 μM ([4]; 0.56 μM antisense oligonucleotide): 47%; percent inhibition of PKK mRNA, 1.67 μM ([4]; 1.67 μM antisense oligonucleotide): 74%; percent inhibition of PKK mRNA, 5.00 μM ([4]; 5.00 μM antisense oligonucleotide): 96%; IC50 ([4]; 0.19-5.00 μM): 600 nM |
| 547483 (antisense eT*e[5mC]*e[5mC]*e[5mC]*e[5mC]*d[5mC]*dT*dT*d[5mC]*dT*dT*dT*dA*dT*dA*eG*e[5mC]*e[5mC]*eA*eG) [compound 547483] | – | – | – | – | – | % inhibition ([3]; Table 9 experiment, HepaRG cells, 20,000 cells per well, electroporation with 5,000 nM antisense oligonucleotide, approx. 24 hours, PKK mRNA by RT-PCR (RTS3454), relative to untreated control cells): 71%; % inhibition ([3]; Table 10 experiment, HepaRG cells, 20,000 cells per well, electroporation with 5,000 nM antisense oligonucleotide, approx. 24 hours, PKK mRNA by RT-PCR (RTS3454), relative to untreated control cells): 77%; percent inhibition of PKK at 0.19 μM ([4]; Table 37): 0%; percent inhibition of PKK at 0.56 μM ([4]; Table 37): 9%; percent inhibition of PKK at 1.67 μM ([4]; Table 37): 49%; percent inhibition of PKK at 5.00 μM ([4]; Table 37): 71%; IC50 ([4]; 4 point dose response, Table 37): 2100 nM |

From patent US11840686B2, “Modulation of prekallikrein (PKK) expression” (Ionis Pharmaceuticals, Inc., priority 2013, dated 2023)
